ChEMBL document CHEMBL3864167, “Structure-Activity Relationship, Drug Metabolism and Pharmacokinetics Properties Optimization, and in Vivo Studies of New Brain Penetrant Triple T-Type Calcium Channel Blockers” (J Med Chem, 2016)
Converted amounts (≈) assume the structure as drawn.

Columns and labels:
[1] = molecular target: Voltage-dependent T-type calcium channel subunit alpha-1G (Homo sapiens, UniProt O43497); experiment: Channel blocking activity at recombinant human CaV 3.1 channel expressed in HEK293 cells assessed as inhibition of Ca2+ flux preincubated for 3 mins followed by CaCl2 addition by fluo-4 dye-based FLIPR assay; type: cell-based
Chain of Voltage-dependent T-type calcium channel subunit alpha-1G (O43497 whole entry): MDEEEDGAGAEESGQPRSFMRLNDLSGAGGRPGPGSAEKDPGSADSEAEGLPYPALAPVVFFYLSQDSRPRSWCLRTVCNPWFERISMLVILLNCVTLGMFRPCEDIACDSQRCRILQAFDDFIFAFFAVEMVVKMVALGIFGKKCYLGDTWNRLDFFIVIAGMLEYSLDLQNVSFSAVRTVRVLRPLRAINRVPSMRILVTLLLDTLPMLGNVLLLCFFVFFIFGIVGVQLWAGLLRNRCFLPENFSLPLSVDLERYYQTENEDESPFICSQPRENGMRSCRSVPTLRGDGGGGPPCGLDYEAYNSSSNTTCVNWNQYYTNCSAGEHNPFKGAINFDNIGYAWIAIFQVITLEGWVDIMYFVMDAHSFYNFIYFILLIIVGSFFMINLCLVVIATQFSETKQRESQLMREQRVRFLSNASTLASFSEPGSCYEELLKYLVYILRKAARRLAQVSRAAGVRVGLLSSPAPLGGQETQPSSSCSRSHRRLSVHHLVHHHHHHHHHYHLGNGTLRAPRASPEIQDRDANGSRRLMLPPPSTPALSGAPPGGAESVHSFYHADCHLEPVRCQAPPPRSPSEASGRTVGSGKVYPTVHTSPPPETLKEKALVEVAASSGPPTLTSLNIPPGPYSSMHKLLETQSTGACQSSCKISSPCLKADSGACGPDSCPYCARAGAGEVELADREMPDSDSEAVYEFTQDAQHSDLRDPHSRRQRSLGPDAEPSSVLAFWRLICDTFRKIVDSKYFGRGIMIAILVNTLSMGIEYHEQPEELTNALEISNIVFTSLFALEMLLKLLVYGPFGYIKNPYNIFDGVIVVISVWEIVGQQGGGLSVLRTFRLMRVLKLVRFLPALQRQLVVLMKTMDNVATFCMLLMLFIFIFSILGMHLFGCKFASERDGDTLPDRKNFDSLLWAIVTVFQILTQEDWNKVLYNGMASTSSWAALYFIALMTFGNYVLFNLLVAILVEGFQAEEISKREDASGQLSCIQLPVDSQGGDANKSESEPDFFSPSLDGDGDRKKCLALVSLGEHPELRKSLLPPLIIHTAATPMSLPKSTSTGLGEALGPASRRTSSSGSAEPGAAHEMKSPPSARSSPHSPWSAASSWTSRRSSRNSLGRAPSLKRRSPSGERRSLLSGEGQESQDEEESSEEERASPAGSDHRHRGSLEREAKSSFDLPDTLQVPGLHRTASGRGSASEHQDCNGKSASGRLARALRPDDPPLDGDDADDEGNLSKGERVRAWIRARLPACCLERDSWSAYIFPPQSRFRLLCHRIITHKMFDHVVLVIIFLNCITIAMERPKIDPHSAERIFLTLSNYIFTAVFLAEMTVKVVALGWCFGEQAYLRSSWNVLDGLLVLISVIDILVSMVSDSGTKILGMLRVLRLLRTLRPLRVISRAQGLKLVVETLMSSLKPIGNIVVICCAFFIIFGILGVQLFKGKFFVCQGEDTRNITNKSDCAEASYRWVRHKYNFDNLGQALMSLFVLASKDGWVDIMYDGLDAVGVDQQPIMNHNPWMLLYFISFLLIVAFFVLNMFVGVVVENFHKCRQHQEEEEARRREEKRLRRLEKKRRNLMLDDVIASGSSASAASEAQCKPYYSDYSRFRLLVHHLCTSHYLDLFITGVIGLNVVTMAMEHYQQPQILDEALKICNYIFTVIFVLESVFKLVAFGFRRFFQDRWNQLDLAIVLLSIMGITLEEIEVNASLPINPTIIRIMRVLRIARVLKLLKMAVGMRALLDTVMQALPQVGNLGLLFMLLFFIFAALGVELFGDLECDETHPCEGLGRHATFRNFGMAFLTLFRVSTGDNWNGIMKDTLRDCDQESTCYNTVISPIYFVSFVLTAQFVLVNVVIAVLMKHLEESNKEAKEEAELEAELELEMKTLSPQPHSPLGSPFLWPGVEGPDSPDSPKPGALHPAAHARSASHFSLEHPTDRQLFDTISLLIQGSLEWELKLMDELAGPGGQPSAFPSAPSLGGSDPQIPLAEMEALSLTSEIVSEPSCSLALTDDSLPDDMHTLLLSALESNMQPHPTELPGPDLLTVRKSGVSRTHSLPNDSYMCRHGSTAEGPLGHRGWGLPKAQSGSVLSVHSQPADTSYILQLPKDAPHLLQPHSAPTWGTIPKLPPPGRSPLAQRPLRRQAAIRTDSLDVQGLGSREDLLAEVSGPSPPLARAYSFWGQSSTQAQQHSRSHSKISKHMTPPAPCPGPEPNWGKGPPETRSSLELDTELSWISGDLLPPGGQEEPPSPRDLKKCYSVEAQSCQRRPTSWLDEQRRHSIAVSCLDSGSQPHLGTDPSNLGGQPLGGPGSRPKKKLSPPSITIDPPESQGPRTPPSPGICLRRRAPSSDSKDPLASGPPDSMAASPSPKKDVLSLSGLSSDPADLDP

[2] = molecular target: Voltage-dependent T-type calcium channel subunit alpha-1H (Homo sapiens, UniProt O95180); experiment: Channel blocking activity at recombinant human CaV 3.2 channel expressed in HEK293 cells assessed as inhibition of Ca2+ flux preincubated for 3 mins followed by CaCl2 addition by fluo-4 dye-based FLIPR assay; type: cell-based
Chain of Voltage-dependent T-type calcium channel subunit alpha-1H (O95180 whole entry): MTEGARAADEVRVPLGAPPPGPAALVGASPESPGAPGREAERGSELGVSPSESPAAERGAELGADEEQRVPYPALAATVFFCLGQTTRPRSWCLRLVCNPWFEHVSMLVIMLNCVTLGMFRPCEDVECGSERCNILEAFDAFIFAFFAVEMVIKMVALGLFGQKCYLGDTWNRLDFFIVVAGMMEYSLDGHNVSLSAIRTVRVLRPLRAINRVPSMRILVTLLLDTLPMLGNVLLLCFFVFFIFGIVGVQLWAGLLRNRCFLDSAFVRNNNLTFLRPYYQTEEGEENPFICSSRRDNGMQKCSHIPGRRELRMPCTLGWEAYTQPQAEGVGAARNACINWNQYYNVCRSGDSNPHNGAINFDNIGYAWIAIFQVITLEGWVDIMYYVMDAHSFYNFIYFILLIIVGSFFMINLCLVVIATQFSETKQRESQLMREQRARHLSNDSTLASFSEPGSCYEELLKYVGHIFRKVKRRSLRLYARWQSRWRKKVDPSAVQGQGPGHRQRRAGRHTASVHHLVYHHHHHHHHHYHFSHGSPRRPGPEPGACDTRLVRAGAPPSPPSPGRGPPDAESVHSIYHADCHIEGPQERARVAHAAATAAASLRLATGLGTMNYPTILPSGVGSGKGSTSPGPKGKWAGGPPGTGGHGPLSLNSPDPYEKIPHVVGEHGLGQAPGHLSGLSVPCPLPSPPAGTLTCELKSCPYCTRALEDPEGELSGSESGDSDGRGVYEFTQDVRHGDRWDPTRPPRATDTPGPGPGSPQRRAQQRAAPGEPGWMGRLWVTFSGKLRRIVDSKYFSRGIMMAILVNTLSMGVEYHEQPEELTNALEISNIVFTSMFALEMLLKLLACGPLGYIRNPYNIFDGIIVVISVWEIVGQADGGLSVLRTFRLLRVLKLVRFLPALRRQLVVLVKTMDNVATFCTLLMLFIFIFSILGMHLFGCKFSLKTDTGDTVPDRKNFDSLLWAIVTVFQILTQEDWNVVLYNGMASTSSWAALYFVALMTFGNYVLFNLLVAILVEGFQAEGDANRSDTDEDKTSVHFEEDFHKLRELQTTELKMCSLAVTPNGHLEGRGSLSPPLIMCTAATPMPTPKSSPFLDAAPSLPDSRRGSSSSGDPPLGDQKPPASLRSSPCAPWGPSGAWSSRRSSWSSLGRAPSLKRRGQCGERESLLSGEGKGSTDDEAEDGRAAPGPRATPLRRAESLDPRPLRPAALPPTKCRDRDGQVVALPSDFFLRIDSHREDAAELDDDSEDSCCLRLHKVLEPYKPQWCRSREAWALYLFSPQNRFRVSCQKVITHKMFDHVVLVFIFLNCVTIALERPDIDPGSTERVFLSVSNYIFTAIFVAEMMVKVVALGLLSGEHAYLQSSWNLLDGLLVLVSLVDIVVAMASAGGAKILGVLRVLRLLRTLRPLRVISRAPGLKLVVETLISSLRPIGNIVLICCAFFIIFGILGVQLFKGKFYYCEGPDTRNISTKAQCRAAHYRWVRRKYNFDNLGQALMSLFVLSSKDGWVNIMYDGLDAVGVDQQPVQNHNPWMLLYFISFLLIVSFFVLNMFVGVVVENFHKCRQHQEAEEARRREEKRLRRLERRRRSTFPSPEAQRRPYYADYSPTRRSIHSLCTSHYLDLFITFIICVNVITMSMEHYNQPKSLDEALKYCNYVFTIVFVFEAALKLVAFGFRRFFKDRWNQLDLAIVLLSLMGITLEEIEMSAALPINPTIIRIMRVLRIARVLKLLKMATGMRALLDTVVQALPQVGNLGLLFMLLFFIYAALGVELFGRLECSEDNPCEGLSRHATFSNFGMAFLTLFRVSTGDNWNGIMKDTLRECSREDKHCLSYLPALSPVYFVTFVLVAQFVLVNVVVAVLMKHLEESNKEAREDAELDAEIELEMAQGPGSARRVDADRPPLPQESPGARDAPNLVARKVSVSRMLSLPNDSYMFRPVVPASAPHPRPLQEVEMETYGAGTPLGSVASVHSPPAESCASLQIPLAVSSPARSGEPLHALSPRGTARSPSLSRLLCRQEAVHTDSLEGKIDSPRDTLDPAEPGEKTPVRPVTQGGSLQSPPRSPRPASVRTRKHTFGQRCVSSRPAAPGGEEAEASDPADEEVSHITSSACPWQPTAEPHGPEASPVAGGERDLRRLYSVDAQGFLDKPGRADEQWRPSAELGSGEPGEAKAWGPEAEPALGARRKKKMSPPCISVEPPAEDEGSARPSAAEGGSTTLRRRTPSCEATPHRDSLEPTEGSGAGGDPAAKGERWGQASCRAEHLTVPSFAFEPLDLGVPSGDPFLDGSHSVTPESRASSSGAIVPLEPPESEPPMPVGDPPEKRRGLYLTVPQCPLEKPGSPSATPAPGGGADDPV

[3] = molecular target: Voltage-dependent T-type calcium channel subunit alpha-1I (Homo sapiens, UniProt Q9P0X4); experiment: Channel blocking activity at recombinant human CaV 3.3 channel expressed in HEK293 cells assessed as inhibition of Ca2+ flux preincubated for 3 mins followed by CaCl2 addition by fluo-4 dye-based FLIPR assay; type: cell-based
[4] = molecular target: Cytochrome P450 3A4 (Homo sapiens, UniProt P08684); experiment: Inhibition of CYP3A4 (unknown origin); type: ADME
[5] = test system: Rattus norvegicus; experiment: Toxicity in WAG/Rij rat model of generalized nonconvulsive absence like epilepsy at 100 mg/kg, po administered as single dose; type: organism-based; settings: in vivo
[6] = Antiepileptic activity in WAG/Rij rat model of generalized nonconvulsive absence like epilepsy implanted with telemetric transmitter assessed as reduction in number of seizures at 100 mg/kg, po administered as single dose at nocturnal active phase measured after 12 hrs by […] analysis relative to control; type: functional, organism-based; design: scale not given: the % may be the effect or the level left
[7] = (§1) Antiepileptic activity in WAG/Rij rat model of generalized nonconvulsive absence like epilepsy implanted with telemetric transmitter assessed as reduction in number of seizures at 100 mg/kg, po administered as single dose at nocturnal active phase measured after 3 hrs by […] analysis; type: functional, organism-based; design: scale not given: the % may be the effect or the level left
[8] = as §1, with “cumulated duration” for “number”, “12” for “3”; type: functional, organism-based; design: scale not given: the % may be the effect or the level left
[9] = Solubility of the compound at pH 7; type: physicochemical; settings: buffer
[10] = Solubility of the compound in fast state simulated intestinal fluid; type: ADME; settings: fasted state simulated intestinal fluid (FaSSIF)
[11] = Solubility of the compound in fed state simulated intestinal fluid; type: ADME; settings: fed state simulated intestinal fluid (FeSSIF)
[12] = Lipophilicity, logD of compund at pH 7.4; type: physicochemical; settings: buffer
[13] = Intrinsic clearance in human liver microsomes at 1 uM up to 15 mins in presence of NADPH by LC-MS-MS analysis; type: ADME; settings: read-out: CLH
[14] = test system: MDR1; experiment: Apparent permeability from apical side to basolateral side in MDCK1 cells expressing MDR1; type: ADME, cell-based, Canis lupus familiaris; settings: dog, MDCK-MDR1
[15] = test system: MDR1; experiment: Apparent permeability from basolateral side to apical side in MDCK1 cells expressing MDR1; type: ADME, cell-based, Canis lupus familiaris; settings: dog, MDCK-MDR1
[16] = test system: MDR1; experiment: Efflux ratio for apparent permeability in MDCK1 cells expressing MDR1; type: ADME, cell-based, Canis lupus familiaris; settings: dog, MDCK-MDR1
[17] = Dissociation constant, pKa of compound; type: physicochemical
[18] = Cmax in Wistar rat at 100 mg/kg administered through oral gavage up to 24 hrs by LC-MS-MS analysis; type: ADME, organism-based; design: dose 100 mg/kg, route oral; settings: in vivo
[19] = Tmax in Wistar rat at 100 mg/kg administered through oral gavage by LC-MS-MS analysis; type: ADME, organism-based; settings: in vivo
[20] = AUC in Wistar rat at 100 mg/kg administered through oral gavage up to 24 hrs by LC-MS-MS analysis; type: ADME, organism-based; design: dose 100 mg/kg, time < 24 hr, route oral; settings: in vivo
[21] = Drug uptake in Wistar rat brain at 100 mg/kg, po after 1 hr by LC-MS/MS analysis; type: ADME, organism-based; settings: read-out: Drug uptake
[22] = Drug uptake in Wistar rat plasma at 100 mg/kg, po after 1 hr by LC-MS/MS analysis; type: ADME, organism-based
[23] = Ratio of drug level in brain to plasma in Wistar rat at 100 mg/kg, po after 1 hr by LC-MS/MS analysis; type: ADME, organism-based
[24] = Unbound brain concentration in Wistar rat at 100 mg/kg, po after 1 hr by LC-MS/MS analysis; type: ADME, organism-based; settings: in vivo
[25] = Unbound plasma concentration in Wistar rat at 100 mg/kg, po after 1 hr by LC-MS/MS analysis; type: ADME, organism-based; settings: in vivo
[26] = Ratio of unbound brain concentration to unbound plasma concentration in Wistar rat at 100 mg/kg, po after 1 hr by LC-MS/MS analysis; type: ADME, organism-based
[27] = Drug uptake in Wistar rat cerebrospinal fluid at 100 mg/kg, po after 1 hr by LC-MS/MS analysis; type: ADME, organism-based; settings: read-out: Drug uptake
[28] = Fraction unbound in Wistar rat brain at 100 mg/kg, po after 1 hr by LC-MS/MS analysis; type: ADME, organism-based
[29] = Fraction unbound in Wistar rat plasma at 100 mg/kg, po after 1 hr by LC-MS/MS analysis; type: ADME, organism-based
[30] = Ratio of unbound brain concentration in Wistar rat to IC50 for recombinant human CaV 3.1 channel expressed in HEK293 cells; type: ADME, cell-based
[31] = Ratio of unbound brain concentration in Wistar rat to IC50 for recombinant human CaV 3.2 channel expressed in HEK293 cells; type: ADME, cell-based
[32] = Ratio of unbound brain concentration in Wistar rat to IC50 for recombinant human CaV 3.3 channel expressed in HEK293 cells; type: ADME, cell-based
[33] = Intrinsic clearance in Wistar rat liver microsomes at 1 uM up to 15 mins in presence of NADPH by LC-MS-MS analysis; type: ADME; settings: read-out: CLH
[34] = Drug level in human liver microsomes treated with (+/-)-1-((3R,5S)-1-benzyl-3,5-dimethyl-2,3-dihydro-1H-benzo[e][1,4]diazepin-4(5H)-yl)-3-methoxypropan-1-one at 10 uM after 30 mins by LC-MS/MS analysis; type: ADME; settings: 0.5 h
[35] = Drug metabolism in human liver microsomes assessed as (+/-)-1-((3R,5S)-3,5-dimethyl-2,3-dihydro-1H-benzo[e][1,4]diazepin-4(5H)-yl)-3-methoxypropan-1-one metabolite formation at 10 uM after 30 mins by LC-MS/MS analysis; type: ADME; settings: 0.5 h

SMILES | IC50 [1] [µM] | IC50 [2] [µM] | IC50 [3] [µM] | solubility [9] [µg/mL] | solubility [10] [µg/mL] | solubility [11] [µg/mL] | logD [12] | microsomal CLint at 1 µM [13] [µL/min/mg] | Papp A→B [14] [×10⁻⁶ cm/s] | Papp B→A [15] [×10⁻⁶ cm/s] | efflux ratio [16] | pKa [17] | microsomal CLint at 1 µM [33] [µL/min/mg] | other results
C[C@@H]1CN(Cc2ccccc2)c2cnccc2[C@H](C)N1C(=O)NCc1ccccc1 [listing 2 of 2 here] | – | – | – | – | – | – | – | – | – | – | – | – | – | Activity [6]: 50%; Activity [7]: 100%; Activity [8]: 50%
C[C@@H]1CN(Cc2ccccc2)c2cncc(F)c2[C@H](C)N1C(=O)Nc1cccnc1 (racemic) | 0.107 | 0.24 | 0.133 | 177 (≈ 437 µM) | – | – | 3.3 | 83 | 0.9 | 53.8 | 60 | 3.8 to 4.7 | 500 | –
COc1ccc(CNC(=O)N2[C@H](C)CN(CCC(C)C)c3cnccc3[C@@H]2C)cc1 (racemic) | 0.076 | 0.055 | 0.025 | 9 (≈ 21.9 µM) | – | – | 4 | 94 | 10.6 | 54.5 | 5.1 | 6.4 | 885 | –
COCCC(=O)N1[C@H](C)CNc2ccccc2[C@@H]1C (racemic) | – | – | – | – | – | – | – | – | – | – | – | – | – | Drug metabolism [34]: Metabolite_Detected
CC(C)CCN1C[C@@H](C)N(C(=O)Nc2cccnc2)[C@@H](C)c2ccncc21 (racemic) | 0.613 | 0.604 | 0.251 | 309 (≈ 841 µM) | – | – | 3.2 | 30 | 0.4 | 56 | 140 | 4.4 to 6.3 | 496 | –
COCCC(=O)N1[C@H](C)CN(Cc2ccccc2)c2ccccc2[C@@H]1C (racemic) | – | – | – | 27 (≈ 76.6 µM) | 58 (≈ 165 µM) | 195 (≈ 553 µM) | – | > 1250 | – | – | – | – | > 1250 | Drug metabolism [35]: Metabolite_Detected

Further lines, with some results ahead:

IC50 [1] [µM] | IC50 [2] [µM] | IC50 [3] [µM] | solubility [9] [µg/mL] | solubility [10] [µg/mL] | solubility [11] [µg/mL] | logD [12] | microsomal CLint at 1 µM [13] [µL/min/mg] | Papp A→B [14] [×10⁻⁶ cm/s] | Papp B→A [15] [×10⁻⁶ cm/s] | efflux ratio [16] | pKa [17] | microsomal CLint at 1 µM [33] [µL/min/mg] | SMILES | other results
0.138 | 0.102 | 0.011 | – | – | – | – | – | – | – | – | – | – | C[C@@H]1CN(Cc2ccccc2)c2cnccc2[C@H](C)N1C(=O)NCc1ccccc1 [listing 1 of 2 here] | IC50 [4]: 0.023 to 0.031 µM; Activity [5]: Non-Toxic
0.142 | 0.236 | 0.025 | 42 (≈ 105 µM) | 89 (≈ 222 µM) | 318 (≈ 794 µM) | 3.1 | 276 | 16.6 | 55.8 | 3.4 | 6.2 | – | C[C@@H]1CN(Cc2ccccc2)c2cnccc2[C@H](C)N1C(=O)NCc1ccccc1 (racemic) | Cmax [18]: 5440 ng/mL; Tmax [19]: 30 min; AUC at 24 h [20]: 21800 ng·h/mL; concentration at 1 h [21]: 1600 nM; concentration at 1 h [22]: 6780 nM; BPR [23]: 24%; Drug uptake(free) [24]: 35 nM; Cp(f) [25]: 128 nM; BPR [26]: 27%; concentration at 1 h [27]: 494 nM; fraction unbound at 1 h [28]: 0.022; fraction unbound at 1 h [29]: 0.019; Ratio [30]: 0.25; Ratio [31]: 0.15; Ratio [32]: 1.5
0.017 | 0.035 | 0.008 | < 1 | 6 (≈ 15 µM) | 20 (≈ 50.1 µM) | > 4.1 | > 1250 | – | – | – | – | > 1250 | C[C@@H]1CN(Cc2ccccc2)c2ccccc2[C@H](C)N1C(=O)NCc1ccccc1 (racemic) | –
